From US10501482B2, “Compounds for treating spinal muscular atrophy” (Hoffmann-La Roche Inc., priority 2013, dated 2019)
Counter-ions that a name gives are not always drawn.

Key:
SMN protein = SMN protein assay (HTRF) in cultured SMA patient fibroblast cells; format: cell-based; settings: SMA Type 1 human fibroblasts GM03813, 48 hours; for EC1.5x SMN protein (EC1.5x concentration for SMN protein expression): 7-point concentration curve, concentration giving 1.5 times SMN protein vs vehicle; for max. fold increase (maximum fold increase of SMN protein): 7-point concentration data, fold vs vehicle control
Protocol: The SMN HTRF (homogeneous time resolved fluorescence) assay is used to quantify the level of SMN protein in SMA patient fibroblast cells treated with test compounds.
Cells are thawed and cultured in DMEM-10% FBS for 72 hours. Cells are trypsinized, counted and re-suspended to a concentration of 25,000 cells/mL in DMEM-10% FBS. The cell suspensions are plated at 5,000 cells per well in a 96 well microtiter plate and incubated for 3 to 5 hours. […] 1 μL of test compound solution is transferred to cell-containing wells and cells are incubated for 48 hours in a cell culture incubator (37° C., 5% CO2, 100% relative humidity). Triplicate samples are set up for each test compound concentration. After 48 hours, the supernatant is removed from the wells and 25 μL of the RIPA lysis buffer, containing protease inhibitors, is added to the wells and incubated with shaking at room temperature for 1 hour. 25 μL of the diluent is added and then 35 μL of the resulting lysate is transferred to a 384-well plate, where each well contains 5 μL of the antibody solution (1:100 dilution of anti-SMN d2 and anti-SMN kryptate in SMN reconstitution buffer). The plate is centrifuged for 1 minute to bring the solution to the bottom of the wells, then incubated overnight at room temperature. Fluorescence for each well of the plate at 665 nm and 620 nm is measured on an EnVision multilabel plate reader (Perkin-Elmer).
The normalized fluorescence signal is calculated for each sample, Blank and vehicle control well by dividing the signal at 665 nm by the signal at 620 nm. Normalizing the signal accounts for possible fluorescence quenching due to the matrix effect of the lysate. The ΔF value (a measurement of SMN protein abundance as a percent value) for each sample well is calculated by subtracting the normalized average fluorescence for the Blank control wells from the normalized fluorescence for each sample well, then dividing this difference by the normalized average fluorescence for the Blank control wells and multiplying the resulting value by 100. The ΔF value for each sample well represents the SMN protein abundance from test compound-treated samples. The ΔF value for each sample well is divided by the ΔF value for the vehicle control wells to calculate the fold increase in SMN protein abundance relative to the vehicle control. Table 3 provides EC1.5x concentrations for SMN protein expression that was obtained from the 7-point concentration data generated according to the above procedure for particular compounds of the present invention.
Table 4 provides the maximum fold increase of SMN protein that was obtained from the 7-point concentration data generated according to the above procedure for particular compounds of the present invention

[1] = tested on: full length SMN2 minigene mRNA (FL SMN2mini) in HEK293H cells stably transfected with the SMN2-A minigene construct; test: SMN2 minigene mRNA splicing RT-qPCR assay in cultured cells; format: cell-based; settings: Homo sapiens, HEK293-H, 24 hours, 7-point concentration curve, concentration giving 1.5-fold FL SMN2mini mRNA vs vehicle, read-out: EC1.5x minigene (EC1.5x concentration for production of full length SMN2 minigene mRNA)
Protocol: The reverse transcription-quantitative PCR-based (RT-qPCR) assay is used to quantify the level of the full length SMN2 minigene (referred to herein by the term “FL SMN2mini”) mRNA containing SMN2 exon 7 in a HEK293H cell line stably transfected with said minigene and treated with a test compound.
The SMN2-A minigene construct was prepared as described in International Patent Application WO2009/151546A1 page 145 paragraph [00400] to page 147 paragraph [00412](incl. FIG. 1 and FIG. 3 therein).
HEK293H cells stably transfected with the SMN2-A minigene construct (10,000 cells/well) are seeded in 200 μL of cell culture medium (DMEM plus 10% FBS, with 200 μg/mL hygromycin) in 96-well flat-bottom plates and the plate is immediately swirled to ensure proper dispersal of cells and the formation of an even monolayer of cells. Cells are allowed to attach for 6 hours. […] A solution of test compound (1 μL, 200× in DMSO) is added to each cell-containing well and the plate is incubated for 24 hours in a cell culture incubator (37° C., 5% CO2, 100% relative humidity). 2 replicates are prepared for each test compound concentration. The cells are then lysed in the Cells-To-Ct lysis buffer and the lysate is stored at −80° C.
Full length SMN2-A minigene and GAPDH mRNA are quantified using the primers and probes referenced in Table 1. Primer SMN Forward A (SEQ ID NO.1) hybridizes to a nucleotide sequence in exon 7 (nucleotide 22 to nucleotide 40), primer SMN Reverse A (SEQ ID NO.2) hybridizes to a nucleotide sequence in the coding sequence of Firefly luciferase, SMN Probe A (SEQ ID NO.3) hybridizes to a nucleotide sequence in exon 7 (nucleotide 50 to nucleotide 54) and exon 8 (nucleotide 1 to nucleotide 21). The combination of these three oligonucleotides detects only SMN1 or SMN2 minigenes (RT-qPCR) and will not detect endogenous SMN1 or SMN2 genes.
The SMN forward and reverse primers are used at final concentrations of 0.4 μM. The SMN probe is used at a final concentration of 0.15 μM. The GAPDH primers are used at final concentrations of 0.2 μM and the probe at 0.15 μM.
The SMN2-minigene GAPDH mix (15 μL total volume) is prepared by combining 7.5 μL of 2×RT-PCR buffer, 0.4 μL of 25×RT-PCR enzyme mix, 0.75 μL of 20×GAPDH primer-probe mix, 4.0075 μL of water, 2 μL of 10-fold diluted cell lysate, 0.06 μL of 100 μM SMN forward primer, 0.06 μL of 100 μM SMN reverse primer, and 0.225 μL of 100 μM SMN probe.
PCR is carried out at the following temperatures for the indicated time: Step 1: 48° C. (15 min); Step 2: 95° C. (10 min); Step 3: 95° C. (15 sec); Step 4: 60° C. (1 min); then repeat Steps 3 and 4 for a total of 40 cycles.
Each reaction mixture contains both SMN2-A minigene and GAPDH primers/probe sets (multiplex design), allowing simultaneous measurement of the levels of two transcripts.
The increase in the abundance of the FL SMN2mini mRNA relative to that in cells treated with vehicle control is determined from real-time PCR data using a modified ΔΔCt method (as described in Livak and Schmittgen, Methods, 2001, 25:402-8). The amplification efficiency E is calculated from the slope of the amplification curve for FL SMN2mini and GAPDH individually. The abundance of FL SMN2mini and GAPDH mRNA are then calculated as (1+E)^−Ct, where Ct is the threshold value for each amplicon. The abundance of FL SMN2mini mRNA is normalized to GAPDH mRNA abundance. The normalized FL SMN2mini mRNA abundance from test compound-treated samples is then divided by normalized FL SMN2mini mRNA abundance from vehicle-treated cells to determine the level of FL SMN2mini mRNA relative to vehicle control.
Table 2 provides EC1.5x concentrations for production of full length SMN2 minigene mRNA that was obtained from the 7-point concentration data generated according to the above procedure for particular compounds of the present invention.

SMILES	EC1.5x SMN protein (EC1.5x concentration for SMN protein expression) (SMN protein) [µM]	max. fold increase (maximum fold increase of SMN protein) (SMN protein)	EC (1.5-fold) [1] [µM]
COc1cc(N2CCNC(C)C2)ncc1C(=O)Nc1cc(F)c2nc(C)cn2c1 (racemic) [Example 76, rac-N-(8-fluoro-2-methylimidazo[1,2-a]pyridin-6-yl)-4-methoxy-6-(3-methylpiperazin-1-yl)nicotinamide]	0.1629	1.7274	0.0187
Cc1cn2cc(NC(=O)c3ccc(N4CCNC(C)C4)nc3)cc(C(F)(F)F)c2n1 (racemic) [Example 20, rac-N-(2-methyl-8-(trifluoromethyl)-imidazo[1,2-a]-pyridin-6-yl)-6-(3-methyl-piperazin-1-yl)-nicotinamide]	0.8065	1.7789	0.489
Cc1cn2cc(NC(=O)c3ccc(N4CCNCC4)nc3)ccc2n1 [Example 14, N-(2-methyl-imidazo[1,2-a]-pyridin-6-yl)-6-(piperazin-1-yl)nicotinamide]	0.7944	1.5912	0.231
Cc1nc2c(F)cc(NC(=O)c3ccc(N4CC(C)NC(C)C4)nc3)cc2o1 (stereo not drawn) [Example 23, 6-(3,5-dimethyl-piperazin-1-yl)-N-(4-fluoro-2-methylbenzo[d]-oxazol-6-yl)-nicotinamide]	0.5092	1.6942	0.201
Cc1cn2cc(NC(=O)c3ccc(N4CCN(C)C(C)C4)nc3)ccc2n1 (racemic) [Example 82, rac-6-(3,4-dimethylpiperazin-1-yl)-N-(2-methylimidazo[1,2-a]pyridin-6-yl)nicotinamide]	0.7698	1.7306	0.371
COc1nc(N2CCNCC2)ccc1C(=O)Nc1cc(F)c2nc(C)cn2c1 [Example 64, N-(8-fluoro-2-methylimidazo[1,2-a]pyridin-6-yl)-2-methoxy-6-(piperazin-1-yl)nicotinamide]	0.1192	1.7581	0.0291
Cc1cn2cc(NC(=O)c3ccc(N4CCNC(C)C4)cc3F)nc2c(C)n1 (racemic) [Example 5, rac-N-(6,8-dimethyl-imidazo[1,2-a]-pyrazin-2-yl)-2-fluoro-4-(3-methyl-piperazin-1-yl)-benzamide]	0.107	1.7757	0.0612
Cc1cn2cc(NC(=O)c3ccc(N4CCN(C)CC4)cn3)nc2c(C)n1 [Example 9, N-(6,8-dimethyl-imidazo[1,2-a]-pyrazin-2-yl)-5-(4-methyl-piperazin-1-yl)picolinamide]	1.527	1.6085	0.794
COc1nc(N2CCNC(C)(C)C2)ccc1C(=O)Nc1cc(F)c2nc(C)cn2c1 [Example 75, 6-(3,3-dimethyl-piperazin-1-yl)-N-(8-fluoro-2-methyl-imidazo[1,2-a]-pyridin-6-yl)-2-methoxynicotinamide]	0.3061	1.7035	0.0654
Cc1cn2cc(NC(=O)c3cnc(N4CCNCC4)cc3OCC(F)(F)F)cc(F)c2n1 [Example 71, N-(8-fluoro-2-methylimidazo[1,2-a]pyridin-6-yl)-6-(piperazin-1-yl)-4-(2,2,2-trifluoro-ethoxy)nicotinamide]	0.4077	1.4815	0.077
Cc1cn2cc(NC(=O)c3cc(F)c(N4CCNC(C)C4)cc3F)cc(F)c2n1 (racemic) [Example 46, rac-2,5-difluoro-N-(8-fluoro-2-methyl-imidazo[1,2-a]-pyridin-6-yl)-4-(3-methylpiperazin-1-yl)benzamide hydrochloride]	0.3584	1.5572	0.0887
Cc1cn2cc(NC(=O)c3ccc(N4CCNCC4)nc3)cc(F)c2n1 [Example 41, N-(8-tluoro-2-methylimidazo-[1,2-a]pyridin-6-yl)-6-(piperazin-1-yl)nicotinamide dihydrochloride]	0.0508	1.7973	
CCOc1cc(N2CCNCC2)ncc1C(=O)Nc1cc(F)c2nc(C)cn2c1 [Example 70, 4-ethoxy-N-(8-fluoro-2-methylimidazo[1,2-a]pyridin-6-yl)-6-(piperazin-1-yl)nicotinamide]	0.0187	1.933	
Cc1nc2c(F)cc(NC(=O)c3ccc(N4CCN5CCC[C@H]5C4)cc3F)cc2o1 [Example 33, (S)-2-Fluoro-N-(4-fluoro-2-methyl-benzooxazol-6-yl)-4-(S)-hexahydro-pyrrolo[1,2-a]-pyrazin-2-yl-benzamide]	0.5703	1.7541	
